The text below walks through data of ChEMBL document CHEMBL1148889, “Biaryl cannabinoid mimetics--synthesis and structure-activity relationship” (Bioorg Med Chem Lett, 2007).

Values joined by “and” are separate entries in the source; they are usually repeats but may differ in a detail not shown here. Equal values may be shown once.

By Ki is commonly meant the dissociation constant of the complex between target and ligand, obtained from inhibition or displacement. The low end stands for a stronger hold on the target, the high end for a looser hold on the target.

In test [1] the target is Cannabinoid receptor 1 (Homo sapiens, UniProt P21554). In words: Displacement of [3H]CP-55940 from cloned human CB1 receptor.
Sequence of Cannabinoid receptor 1 (P21554 whole entry): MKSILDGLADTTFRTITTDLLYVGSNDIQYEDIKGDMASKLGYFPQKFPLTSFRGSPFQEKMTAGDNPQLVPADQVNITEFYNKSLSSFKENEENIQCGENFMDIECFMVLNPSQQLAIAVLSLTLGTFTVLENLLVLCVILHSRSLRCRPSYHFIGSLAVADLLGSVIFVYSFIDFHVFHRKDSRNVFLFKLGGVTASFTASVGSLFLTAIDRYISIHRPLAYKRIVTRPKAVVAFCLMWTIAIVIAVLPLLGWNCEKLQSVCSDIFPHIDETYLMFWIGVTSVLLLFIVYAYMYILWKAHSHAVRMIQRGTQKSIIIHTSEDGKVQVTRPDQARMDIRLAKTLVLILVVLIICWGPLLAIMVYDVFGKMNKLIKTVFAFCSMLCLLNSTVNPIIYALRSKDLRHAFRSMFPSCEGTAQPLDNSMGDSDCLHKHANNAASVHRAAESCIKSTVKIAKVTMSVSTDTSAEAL
Test [2] has as its target Cannabinoid receptor 2 (Homo sapiens, UniProt P34972). In words: Displacement of [3H]CP-55940 from cloned human CB2 receptor. A general note: In a radioligand displacement assay an active substance lowers the binding of a labelled ligand.
Test [3] addresses Cannabinoid receptor (Homo sapiens) (UniProt P34972+P21554). In words: Selectivity for human CB2 receptor over human CB1 receptor. Type of test: protein assay.

Sequence of Cannabinoid receptor (Homo sapiens) (P21554 whole entry, looked up): as the sequence (P21554 whole entry) above
Sequence of Cannabinoid receptor (Homo sapiens) (P34972 whole entry, looked up): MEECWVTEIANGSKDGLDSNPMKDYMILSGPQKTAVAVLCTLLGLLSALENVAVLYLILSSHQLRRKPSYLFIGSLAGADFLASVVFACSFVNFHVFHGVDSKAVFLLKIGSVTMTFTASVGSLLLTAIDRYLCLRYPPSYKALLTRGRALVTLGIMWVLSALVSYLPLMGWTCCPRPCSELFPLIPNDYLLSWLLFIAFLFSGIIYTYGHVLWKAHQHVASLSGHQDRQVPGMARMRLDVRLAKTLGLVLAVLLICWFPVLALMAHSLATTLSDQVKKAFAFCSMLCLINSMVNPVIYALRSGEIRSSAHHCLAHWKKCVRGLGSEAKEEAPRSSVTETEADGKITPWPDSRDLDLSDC
Sequence of Cannabinoid receptor 2 (P34972 whole entry): as the sequence (P34972 whole entry, looked up) above

As to `COC(=O)CCC(C)(C)c1ccc(-c2cc(C)cc(C)c2)c(O)c1`, the Ki in test [1] was found to be 120 nM; in test [2], 5.6 nM. The Ratio Ki in test [3] was 20.

Consider `CCCCCCC(C)(C)c1ccc(-c2cccnc2)c(O)c1`, for which the Ki in test [1] is 23 nM; in test [2] it was 20 nM. The Ratio Ki in test [3] was 1.

In the case of `CCCCCCC(C)(C)c1ccc(-c2cccc(C(=O)O)c2)c(O)c1`, the inhibition constant Ki in test [1] and in test [2] was greater than 1000 nM in each case.

`CCCCCCC(C)(C)c1ccc(-c2cc(C)cc(C)c2)cc1` returned a Ki in test [1] greater than 30000 nM. Besides, the Ratio Ki in test [3] is greater than 10.

For `CCCCCCC1(c2ccc(-c3cc(C)cc(C)c3)c(O)c2)CC1`, the Ki in test [1] stood at 13 nM; in test [2], 55 nM. In addition, the Ratio Ki in test [3] was found to be 0.2.

Regarding `CCCCCCC(C)(C)c1ccc(-c2ccc(OC)c(OC)c2)c(O)c1`, the values for the inhibitory constant (Ki) in test [1] and in test [2] were 1400 nM and 1700 nM, respectively. Besides, the Ratio Ki in test [3] was 0.8.

For `Cc1cc(C)cc(-c2ccc(C(C)(C)CCCCCO)cc2O)c1`, the Ki in test [1] came to 39 nM; in test [2], 3.6 nM. The Ratio Ki in test [3] was 10.

With `CCCCCCC(C)(C)c1ccc(-c2cc(C)cc(C)c2)c(CO)c1`, the figures for the Ki in test [1] and in test [2] were 360 nM and 480 nM, respectively. Also, the Ratio Ki in test [3] was determined as 0.8.

For `CCCCCCC(C)(C)c1ccc(-c2cc(C)cc(C)c2)c(C(N)=O)c1`, the Ki in test [1] was determined as 370 nM; in test [2] it was 320 nM. In addition, in test [3], the Ratio Ki was determined as 1.

Regarding `CCCCCCC1(c2ccc(-c3cc(C)cc(C)c3)c(O)c2)CCCC1`, the Ki in test [1] amounted to 2.9 nM; in test [2], 5.5 nM. In addition, the Ratio Ki in test [3] came out at 0.5.

Consider `CCCCCCC(C)(C)c1ccc(-c2c(C)cccc2C)c(O)c1`, for which the Ki in test [1] amounted to 1.7 nM; in test [2] it was 18 nM. In addition, the Ratio Ki in test [3] was found to be 0.1.

On to `Cc1cc(C)cc(-c2ccc(C(C)(C)CO)cc2O)c1`, for which the Ki in test [1] is 2200 nM; in test [2] it was 600 nM. Further, the Ratio Ki in test [3] came out at 4.

For `CCCCCCC(C)(C)c1ccc(-c2cc(C)cc(C)c2)c(C(=O)NC(C)C)c1`, the Ki in test [1] and in test [2] was greater than 1000 nM throughout.

`CCCCCCC(C)(C)c1ccc(-c2cccc(OC)c2OC)c(O)c1`: the Ki was 34 nM in test [1] and 7.8 nM in test [2]. Further, in test [3], the Ratio Ki came to 4.

For the compound `CCCCCCC(C)(C)c1ccc(-c2cc(C)cc(C)c2)c(OC)c1`, the Ki amounted to 320 nM in test [1] and 34 nM in test [2]. Besides, the Ratio Ki in test [3] is 9.

With `Cc1cc(C)cc(-c2ccc(C(C)(C)C(=O)O)cc2O)c1`, the Ki in test [1] and in test [2] was greater than 1000 nM each time.

With `CCCCCCC(C)(C)c1ccc(-c2cccc(N)c2)c(O)c1`, the Ki came out at 15 nM in test [1] and 44 nM in test [2]. In addition, in test [3], the Ratio Ki stood at 0.3.

Turning to `CCCCCCC(C)(C)c1ccc(-c2cccc(C)c2C)c(O)c1`, the inhibitory constant (Ki) was 49 nM in test [1] and 20 nM in test [2]. The Ratio Ki in test [3] is 2.

Take `CCCCCCC(C)(C)c1ccc(-c2cc(C)cc(C)c2)c(CN)c1`: the Ki in test [1] came out at 1500 nM; in test [2] it was 380 nM. Further, the Ratio Ki in test [3] came out at 4.

In the case of `CNC(=O)CCC(C)(C)c1ccc(-c2cc(C)cc(C)c2)c(O)c1`, the values for the Ki in test [1] and in test [2] were 840 nM and 140 nM, respectively. For the same compound, the Ratio Ki in test [3] turned out to be 6.

Turning to `CCCCCCC(C)(C)c1ccc(-c2cc(C)cc(C)c2)c(C(=O)OC)c1`, the Ratio Ki in test [3] was 2 and 1.

`CCCCCCC(C)(C)c1ccc(-c2ccc(C#N)cc2)c(O)c1`: the Ki in test [1] and in test [2] was greater than 1000 nM each time.

Consider `CCCCCCC(C)(C)c1ccc(-c2cc(C)ccc2C)c(O)c1`, for which the inhibition constant Ki was found to be 4.6 nM in test [1] and 6.6 nM in test [2]. Also, the Ratio Ki in test [3] is 0.7.

Turning to `CCCCCCC(C)(C)c1ccc(-c2cc(C)cc(C)c2)c(COC(=O)CN2CCOCC2)c1`, the Ki was determined as 370 nM in test [1] and 0.81 nM in test [2]. In test [3], the Ratio Ki worked out at 500.

In the case of `CCCCCCC(C)(C)c1ccc(-c2ccc(C)c(C)c2)c(O)c1`, the Ki in test [1] came to 600 nM; in test [2] it was 830 nM. Moreover, the Ratio Ki in test [3] was determined as 0.7.

As to `CCCCCCC(C)(C)c1ccc(-c2ccc(N)cc2)c(O)c1`, the Ki in test [1] amounted to 320 nM; in test [2], 1000 nM. For the same compound, the Ratio Ki in test [3] worked out at 0.3.

In the case of `CCCCCCC(C)(C)c1ccc(-c2cc(C)cc(C)c2)c(O)c1`, the Ki was 2.7 nM in test [1] and 2.3 nM in test [2]. The Ratio Ki in test [3] amounted to 1.

Take `COC(=O)C(C)(C)c1ccc(-c2cc(C)cc(C)c2)c(O)c1`: the Ki in test [1] was determined as 160 nM; in test [2], 16 nM. In addition, the Ratio Ki in test [3] worked out at 10.

Consider `Cc1cc(C)cc(-c2ccc(C(C)(C)CCCO)cc2O)c1`, for which the results for the Ki in test [1] and in test [2] were 1100 nM and 56 nM, respectively. In addition, the Ratio Ki in test [3] stood at 20.

Turning to `CCCCCCC(C)(C)c1ccc(-c2ccccc2N)c(O)c1`, the Ki in test [1] came to 5.2 nM; in test [2], 17 nM. Further, the Ratio Ki in test [3] was determined as 0.3.

`CCCCCCC(C)(C)c1ccc(-c2cc(C)cc(C)c2)c(N)c1`: the results for the Ki in test [1] and in test [2] were 80 nM and 51 nM, respectively. Further, in test [3], the Ratio Ki turned out to be 2.

For `CCCCCCC1(c2ccc(-c3cc(C)cc(C)c3)c(O)c2)CCCCC1`, the figures for the Ki in test [1] and in test [2] were 1.8 nM and 1.7 nM, respectively. The Ratio Ki in test [3] came to 1.

Take `CNC(=O)CCCCC(C)(C)c1ccc(-c2cc(C)cc(C)c2)c(O)c1`: the Ki is 96 nM in test [1] and 39 nM in test [2]. In test [3], the Ratio Ki turned out to be 2.

On to `CCCCCCC(C)(C)c1ccc(-c2cccc(OC)c2)c(O)c1`, for which the Ki in test [1] was 91 nM; in test [2], 580 nM. Also, the Ratio Ki in test [3] came to 0.2.

For `Cc1cc(C)cc(-c2ccc(C(C)(C)CCCCC(=O)O)cc2O)c1`, the Ki in test [1] and in test [2] was greater than 1000 nM in each case.

Consider `CCCCCCC(C)(C)c1ccc(-c2cccc(C#N)c2)c(O)c1`, for which the Ki in test [1] was 27 nM; in test [2], 45 nM. In test [3], the Ratio Ki is 0.6.

Regarding `CCCCCCC(C)(C)c1ccc(-c2cc(C)cc(C)c2)c(CN2CCOCC2)c1`, the Ki in test [1] worked out at 3900 nM; in test [2], 660 nM. Also, the Ratio Ki in test [3] is 6.

`CCCCCCC(C)(C)c1ccc(-c2cc(C)cc(C)c2)c(C(=O)O)c1`: the Ki in test [1] and in test [2] was greater than 1000 nM in each case.

`CCCCCCC(C)(C)c1ccc(-c2ccccc2OC)c(O)c1`: the figures for the Ki in test [1] and in test [2] were 1.7 nM and 1 nM, respectively. In test [3], the Ratio Ki came to 2.

Take `COC(=O)CCCCC(C)(C)c1ccc(-c2cc(C)cc(C)c2)c(O)c1`: the values for the Ki in test [1] and in test [2] were 24 nM and 14 nM, respectively. For the same compound, the Ratio Ki in test [3] was determined as 2.

For `CNC(=O)C(C)(C)c1ccc(-c2cc(C)cc(C)c2)c(O)c1`, the Ki in test [1] and in test [2] was greater than 1000 nM in each case.
